Legend:
Type in all cases: cell-based, human
BEAS-2B cells [1] = experiment: Seahorse Cell Mito stress test (OCR); conditions: for ATP production / basal respiration / maximal respiration: after exposure to PM2.5 from both Taiyuan and Guangzhou (200 μg/mL), metabolite 200 μM
Experimental: (§1) To detect the cell viability, different concentrations (25 μM, 50 μM, 100 μM, and 200 μM) of selected metabolic markers were added to BEAS-2B cell cultures for 24 h, followed by 200 μg/mL PM2.5 samples for another 24 h. After exposure, 10 μL CCK-8 with 100 μL mediums were added to the cells and incubated for 1.5 h, the absorption was detected at 450 nm to assess cell viability. Agilent Seahorse assays were used to evaluate the effects of metabolic markers on mitochondrial functions. The OCR of cells was determined after being treated by both metabolic markers (200 μM) and PM2.5 samples (200 μg/mL) (n=3).
(§2) Cell Mito stress test: BEAS-2B cells were seeded in the XF 96-well Seahorse assay miniplates with a density of 20,000 cells/well in BEGM™ bronchial epithelial cell growth medium and incubated for 24 h at 37° C. After exposure, the cells were washed with XF assay medium including 10 mM glucose, 1 mM sodium pyruvate, and 2 mM L-glutamine (adjusted pH to 7.4 with 0.1 M NaOH) and incubated for 1 h in a 37° C. non-CO2 incubator. Before assay, the sensor cartridge was hydrated in Agilent Seahorse XF Calibrant at 37° C. in a non-CO2 incubator overnight, and oligomycin (port A final 1 μM), carbonyl cyanide-4-(trifluoromethoxy) phenylhydrazone (FCCP) (port B final 1 μM chosen from the optimization assay) and rotenone antimycin A (port C final 0.5 μM) were added to the corresponding ports of the hydrated sensor cartridge. Then the cartridge was transferred to the Seahorse analyzer (Agilent Technologies) to calibrate the period for approximately 20 min. When the calibration has been completed, the utility plate was removed and the cell miniplate was placed to start the assay. The assay was divided into four parts. After the equilibration period was three basal assays, and then oligomycin was added to inhibit the complex V (ATP synthase) for three cycles, FCCP was followed to stimulate maximal respiration in mitochondria by uncoupling ATP synthesis from electron transport. Lastly, rotenone plus antimycin A was added to determine the non-mitochondrial respiratory rate. Oxygen consumption rate (OCR) was used to assess the mitochondrial respiratory change.

BEAS-2B cells [2] = experiment: Cell viability (CCK-8) of BEAS-2B cells given metabolic markers, then PM2.5; conditions: metabolite 25-200 μM for 24 h, then 200 μg/mL PM2.5 for 24 h
Experimental: as §1

BEAS-2B cells [3] = experiment: Seahorse substrate oxidation stress test (glucose / fatty acid oxidation); conditions: for maximal respiration of cells with oxidation inhibitor: cells with or without PM2.5
Experimental: as §2
The substrate oxidation stress test was used to assess the specific mitochondrial substrates that were relevant or required for cellular phenotype and function. Two different inhibitors (UK50099 for the glucose pathway and etomoxir for the long-chain fatty acids pathway) were added before the Mito stress test and the following process was the same with the Mito stress test.

Phospho1 = experiment: qPCR gene expression, Phospho1
Experimental: (§3) Total RNA was extracted from BEAS-2B cells with RNAiso plus kit (TaKaRa, Shiga, Japan) according to the manufacturer's instructions. Reverse transcription of cDNA synthesis and real-time quantitative polymerase chain reaction (qPCR) were performed as described previously. All primers synthesized at BGI Co., Ltd. (Hong Kong, China) were described in Table 2.

PGC-1α = experiment: qPCR gene expression, PGC-1α; conditions: repressed by PM2.5 exposure
Experimental: as §3

GFAT = experiment: qPCR gene expression, GFAT; conditions: after exposure to PM2.5
Experimental: as §3

OGT = experiment: qPCR gene expression, OGT; conditions: after PM2.5 exposure
Experimental: as §3

Compound: CC(=O)N[C@@H](CC(=O)O)C(=O)O [NAA, N-acetyl-aspartic acid]
- ATP production (BEAS-2B cells [1]): significantly increase
- basal respiration (BEAS-2B cells [1]): significantly increase
- maximal respiration (BEAS-2B cells [1]): significantly increase

Compound: C[N+](C)(C)CCOP(=O)([O-])O [Pc, phosphocholine]
- cell viability reduced by PM2.5 exposure (BEAS-2B cells [2]): improve the cell viability
- ATP production (BEAS-2B cells [1]): significantly increase
- basal respiration (BEAS-2B cells [1]): significantly increase
- maximal respiration (BEAS-2B cells [1]): significantly increase
- effect against adverse impacts of the TY1 panel on mitochondrial functions (BEAS-2B cells [1]; cells exposed to TY1): protective effects
- maximal respiration, fatty acid oxidation test (BEAS-2B cells [3]; only in the PM2.5-exposed lung cells): significantly increased
- Phospho1 expression (Phospho1; after PM2.5 exposure): greatly downregulated
- Phospho1 expression (Phospho1; normal cells): no effects
- PGC-1α expression (PGC-1α): rescued

Compound: N#C/C(=C\c1cn(-c2ccccc2)c2ccccc12)C(=O)O [UK5099, reference compound]
- maximal respiration of cells with oxidation inhibitor (BEAS-2B cells [3]): remarkably reduced

Compound: CN(CC(=O)O)C(=N)N [creatine]
- cell viability reduced by PM2.5 exposure (BEAS-2B cells [2]): improve the cell viability

Compound: CCOC(=O)[C@@]1(CCCCCCOc2ccc(Cl)cc2)CO1 [etomoxir, reference compound]
- maximal respiration of cells with oxidation inhibitor (BEAS-2B cells [3]): did not change

Compound: NCCS(=O)(=O)O [taurine]
- cell viability reduced by PM2.5 exposure (BEAS-2B cells [2]): improve the cell viability

Compound: uridine diphosphate N-acetylglucosamine [UDP-GlcNAc]
- ATP production (BEAS-2B cells [1]): significantly increase
- basal respiration (BEAS-2B cells [1]): significantly increase
- maximal respiration (BEAS-2B cells [1]): significantly increase
- increase of cells' glucose oxidation (BEAS-2B cells [3]; cultures with and without PM2.5): 1.6 fold
- GFAT expression (GFAT): interacted with the decline of GFAT
- OGT expression (OGT): partially rescued
